Laboratory results: the supplement of paper PMC12463676, “Small-molecule dissolution of stress granules by redox modulation benefits ALS models” (Nature Chemical Biology, 2025)

What was measured:
[1] = compound: NC(=O)CCCCC1CCSS1 [lipoamide]; experiment: thermal stability z-score vs DMSO; higher = more thermally stabilized by treatment; conditions: HeLa, lipoamide concentration 100 µM
Experimental: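 Cellular thermal proteome profiling in HeLa cells. Cells were treated with 100 µM lipoamide for 1 h, with or without 1 mM arsenate for a further 1 h, then heated to ten temperatures (37-66.3 °C), and soluble protein was quantified by TMT mass spectrometry relative to 0.1% DMSO controls. The thermal stability score (sum of log2 fold changes minus the abundance score) was transformed to a z-score; mean of n = 3 experiments.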

[2] = compound: O=[As]([O-])(O)O.[K+] [potassium arsenate]; experiment: as above; conditions: HeLa; arsenate concentration 1 mM
Experimental: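 Cellular thermal proteome profiling in HeLa cells treated with 1 mM arsenate for 1 h (DMSO pretreatment), heated to ten temperatures (37-66.3 °C). Soluble protein was quantified by TMT mass spectrometry relative to DMSO controls; the thermal stability score was transformed to a z-score; mean of n = 3 experiments.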

[3] = arsenate co-treatment: 1 mM arsenate 1 h
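Further: each temperature applied for 3 min, abundance score taken as mean log2 fold change at the two lowest temperatures, z-score obtained by mean subtraction and division by SD.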

CCND1 (UniProt P24385)
Sequence of UniProt P24385 (P24385 whole entry): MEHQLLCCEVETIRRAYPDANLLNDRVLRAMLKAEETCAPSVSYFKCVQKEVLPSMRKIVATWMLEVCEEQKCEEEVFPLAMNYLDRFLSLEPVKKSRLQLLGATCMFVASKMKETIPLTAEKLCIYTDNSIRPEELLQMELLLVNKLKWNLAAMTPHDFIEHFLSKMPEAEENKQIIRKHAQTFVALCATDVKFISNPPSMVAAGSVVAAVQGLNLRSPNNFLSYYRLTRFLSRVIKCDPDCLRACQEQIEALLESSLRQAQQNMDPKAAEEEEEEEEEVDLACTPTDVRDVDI
thermal stability z-score [1, 3]: -0.0213
thermal stability z-score ([1]; arsenate co-treatment: none): -0.202
thermal stability z-score [2]: 0.0378

API5 (UniProt Q9BZZ5)
thermal stability z-score [1, 3]: 0.11
thermal stability z-score ([1]; arsenate co-treatment: none): 0.124
thermal stability z-score [2]: 0.0226

COQ9 (UniProt O75208)
thermal stability z-score [1, 3]: -0.364
thermal stability z-score ([1]; arsenate co-treatment: none): -0.531
thermal stability z-score [2]: 1.61

TIMM13 (UniProt Q9Y5L4)
thermal stability z-score [1, 3]: 1.99
thermal stability z-score ([1]; arsenate co-treatment: none): 1.56
thermal stability z-score [2]: -0.381

RPS15A (UniProt P62244)
thermal stability z-score [1, 3]: 0.437
thermal stability z-score ([1]; arsenate co-treatment: none): 0.494
thermal stability z-score [2]: -0.776

TMEM2 (UniProt Q9UHN6)
Sequence of UniProt Q9UHN6 (Q9UHN6 whole entry): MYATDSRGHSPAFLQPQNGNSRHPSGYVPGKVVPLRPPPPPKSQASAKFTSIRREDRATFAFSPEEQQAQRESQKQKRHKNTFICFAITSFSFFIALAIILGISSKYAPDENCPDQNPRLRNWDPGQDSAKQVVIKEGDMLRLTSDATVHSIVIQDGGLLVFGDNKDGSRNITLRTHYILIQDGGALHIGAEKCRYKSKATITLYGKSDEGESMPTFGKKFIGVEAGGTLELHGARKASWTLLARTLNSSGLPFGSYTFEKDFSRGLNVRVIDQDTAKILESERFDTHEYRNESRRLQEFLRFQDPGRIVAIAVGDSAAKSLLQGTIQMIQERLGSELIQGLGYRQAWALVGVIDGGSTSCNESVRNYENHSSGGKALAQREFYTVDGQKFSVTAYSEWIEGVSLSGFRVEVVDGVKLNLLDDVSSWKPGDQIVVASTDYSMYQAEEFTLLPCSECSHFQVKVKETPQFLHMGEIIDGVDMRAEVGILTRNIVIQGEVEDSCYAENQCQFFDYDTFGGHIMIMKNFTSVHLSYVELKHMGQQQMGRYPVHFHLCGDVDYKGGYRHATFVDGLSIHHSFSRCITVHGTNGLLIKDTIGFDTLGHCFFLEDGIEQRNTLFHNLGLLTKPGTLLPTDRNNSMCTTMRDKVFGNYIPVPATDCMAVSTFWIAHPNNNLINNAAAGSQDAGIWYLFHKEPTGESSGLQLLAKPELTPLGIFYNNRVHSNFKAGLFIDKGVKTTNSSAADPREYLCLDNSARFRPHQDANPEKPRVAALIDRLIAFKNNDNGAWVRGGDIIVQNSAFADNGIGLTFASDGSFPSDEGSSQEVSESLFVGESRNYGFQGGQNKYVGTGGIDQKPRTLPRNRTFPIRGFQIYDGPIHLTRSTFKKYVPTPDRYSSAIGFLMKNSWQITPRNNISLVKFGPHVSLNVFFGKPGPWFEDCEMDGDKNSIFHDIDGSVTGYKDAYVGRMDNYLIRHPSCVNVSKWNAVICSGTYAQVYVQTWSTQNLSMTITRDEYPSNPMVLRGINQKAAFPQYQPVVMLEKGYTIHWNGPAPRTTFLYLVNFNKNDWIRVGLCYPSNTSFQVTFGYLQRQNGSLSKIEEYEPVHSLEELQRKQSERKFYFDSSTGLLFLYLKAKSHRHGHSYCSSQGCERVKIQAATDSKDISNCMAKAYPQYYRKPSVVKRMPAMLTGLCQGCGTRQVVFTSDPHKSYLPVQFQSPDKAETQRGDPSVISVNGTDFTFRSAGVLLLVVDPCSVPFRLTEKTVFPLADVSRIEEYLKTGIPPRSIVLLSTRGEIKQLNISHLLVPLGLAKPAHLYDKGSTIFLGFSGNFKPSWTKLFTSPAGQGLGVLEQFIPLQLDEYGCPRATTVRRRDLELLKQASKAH
thermal stability z-score [1, 3]: -0.117
thermal stability z-score ([1]; arsenate co-treatment: none): -0.196
thermal stability z-score [2]: 0.466

ECSIT (UniProt Q9BQ95)
thermal stability z-score [1, 3]: 0.434
thermal stability z-score ([1]; arsenate co-treatment: none): -0.221
thermal stability z-score [2]: -0.207

VCL (UniProt P18206)
thermal stability z-score [1, 3]: -0.353
thermal stability z-score ([1]; arsenate co-treatment: none): -0.286
thermal stability z-score [2]: -2.02

CALCOCO1 (UniProt Q9P1Z2)
thermal stability z-score [1, 3]: 0.179
thermal stability z-score ([1]; arsenate co-treatment: none): 0.0847
thermal stability z-score [2]: 0.0728

MRPS31 (UniProt Q92665)
thermal stability z-score [1, 3]: -0.961
thermal stability z-score ([1]; arsenate co-treatment: none): 0.411
thermal stability z-score [2]: -0.0848

NDUFB11 (UniProt Q9NX14)
thermal stability z-score [1, 3]: 0.566
thermal stability z-score ([1]; arsenate co-treatment: none): 0.514
thermal stability z-score [2]: 0.94

TMEM206 (UniProt Q9H813)
thermal stability z-score [1, 3]: 0.109
thermal stability z-score ([1]; arsenate co-treatment: none): 0.0248
thermal stability z-score [2]: -0.299

SYNE2 (UniProt Q8WXH0)
thermal stability z-score [1, 3]: -0.0307
thermal stability z-score ([1]; arsenate co-treatment: none): 0.18
thermal stability z-score [2]: -0.123

PRC1 (UniProt O43663)
thermal stability z-score [1, 3]: -0.144
thermal stability z-score ([1]; arsenate co-treatment: none): -0.106
thermal stability z-score [2]: -0.601

WDSUB1 (UniProt Q8N9V3)
thermal stability z-score [1, 3]: 0.698
thermal stability z-score ([1]; arsenate co-treatment: none): 0.878
thermal stability z-score [2]: 0.867

LACTB (UniProt P83111)
Sequence of UniProt P83111 (P83111 whole entry): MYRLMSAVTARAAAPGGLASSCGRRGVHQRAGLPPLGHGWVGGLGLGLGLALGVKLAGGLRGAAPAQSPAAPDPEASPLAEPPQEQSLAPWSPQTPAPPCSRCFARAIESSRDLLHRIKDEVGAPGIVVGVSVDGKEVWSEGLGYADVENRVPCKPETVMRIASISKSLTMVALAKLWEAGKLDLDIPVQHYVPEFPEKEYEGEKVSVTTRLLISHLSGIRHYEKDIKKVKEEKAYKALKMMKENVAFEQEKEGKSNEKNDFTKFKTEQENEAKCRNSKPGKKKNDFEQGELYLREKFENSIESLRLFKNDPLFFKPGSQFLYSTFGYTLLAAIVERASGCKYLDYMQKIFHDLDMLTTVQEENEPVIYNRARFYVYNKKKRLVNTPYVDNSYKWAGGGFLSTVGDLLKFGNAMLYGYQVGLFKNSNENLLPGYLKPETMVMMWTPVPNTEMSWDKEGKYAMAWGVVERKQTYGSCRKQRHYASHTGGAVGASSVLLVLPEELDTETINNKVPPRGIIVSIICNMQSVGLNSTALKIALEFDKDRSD
thermal stability z-score [1, 3]: -0.437
thermal stability z-score ([1]; arsenate co-treatment: none): -0.129
thermal stability z-score [2]: -0.604

WBP11 (UniProt Q9Y2W2)
Sequence of UniProt Q9Y2W2 (Q9Y2W2 whole entry): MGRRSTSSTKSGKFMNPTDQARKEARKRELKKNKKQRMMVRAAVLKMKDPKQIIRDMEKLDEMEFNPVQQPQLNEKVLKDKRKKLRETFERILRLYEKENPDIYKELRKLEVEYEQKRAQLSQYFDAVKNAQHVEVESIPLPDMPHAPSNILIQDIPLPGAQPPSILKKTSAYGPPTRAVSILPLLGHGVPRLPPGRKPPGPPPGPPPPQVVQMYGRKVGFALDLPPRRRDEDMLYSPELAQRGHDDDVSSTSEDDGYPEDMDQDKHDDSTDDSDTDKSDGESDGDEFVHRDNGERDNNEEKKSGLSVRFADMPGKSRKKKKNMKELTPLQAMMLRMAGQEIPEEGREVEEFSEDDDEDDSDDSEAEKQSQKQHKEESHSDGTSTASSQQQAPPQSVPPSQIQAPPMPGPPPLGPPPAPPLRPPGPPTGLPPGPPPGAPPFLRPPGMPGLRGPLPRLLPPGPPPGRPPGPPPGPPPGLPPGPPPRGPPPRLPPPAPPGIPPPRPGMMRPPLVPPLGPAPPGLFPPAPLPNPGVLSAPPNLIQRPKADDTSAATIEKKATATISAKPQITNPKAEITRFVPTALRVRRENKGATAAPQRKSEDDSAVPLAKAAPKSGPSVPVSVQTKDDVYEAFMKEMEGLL
thermal stability z-score [1, 3]: 0.102
thermal stability z-score ([1]; arsenate co-treatment: none): 0.283
thermal stability z-score [2]: 0.254

DSG2 (UniProt Q14126)
Sequence of UniProt Q14126 (Q14126 whole entry): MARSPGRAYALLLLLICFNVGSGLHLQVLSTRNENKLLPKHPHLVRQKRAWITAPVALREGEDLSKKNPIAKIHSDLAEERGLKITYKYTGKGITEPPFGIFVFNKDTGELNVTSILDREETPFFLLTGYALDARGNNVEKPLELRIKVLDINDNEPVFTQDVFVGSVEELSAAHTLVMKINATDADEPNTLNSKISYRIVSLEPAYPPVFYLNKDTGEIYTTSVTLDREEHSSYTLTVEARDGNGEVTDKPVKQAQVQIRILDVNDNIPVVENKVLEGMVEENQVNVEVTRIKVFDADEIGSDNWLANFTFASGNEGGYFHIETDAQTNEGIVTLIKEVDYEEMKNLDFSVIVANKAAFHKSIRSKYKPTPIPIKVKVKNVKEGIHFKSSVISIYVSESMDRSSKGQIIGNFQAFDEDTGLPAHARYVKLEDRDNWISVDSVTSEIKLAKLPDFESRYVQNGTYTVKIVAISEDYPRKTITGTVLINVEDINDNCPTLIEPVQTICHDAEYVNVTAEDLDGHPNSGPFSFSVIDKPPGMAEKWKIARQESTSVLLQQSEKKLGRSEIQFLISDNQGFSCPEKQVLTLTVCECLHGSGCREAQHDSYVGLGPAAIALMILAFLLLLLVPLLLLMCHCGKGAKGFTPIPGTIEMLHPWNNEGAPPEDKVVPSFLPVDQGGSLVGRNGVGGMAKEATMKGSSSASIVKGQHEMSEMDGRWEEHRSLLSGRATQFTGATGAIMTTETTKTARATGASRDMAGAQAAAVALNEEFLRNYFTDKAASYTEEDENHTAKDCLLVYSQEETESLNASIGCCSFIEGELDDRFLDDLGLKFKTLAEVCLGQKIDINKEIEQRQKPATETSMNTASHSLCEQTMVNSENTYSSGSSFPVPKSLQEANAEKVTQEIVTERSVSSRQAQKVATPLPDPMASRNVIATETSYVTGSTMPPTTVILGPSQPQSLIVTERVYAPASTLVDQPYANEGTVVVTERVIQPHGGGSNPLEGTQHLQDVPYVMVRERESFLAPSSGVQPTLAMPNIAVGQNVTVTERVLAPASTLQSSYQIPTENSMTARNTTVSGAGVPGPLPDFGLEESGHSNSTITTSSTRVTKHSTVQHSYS
thermal stability z-score [1, 3]: -0.108
thermal stability z-score ([1]; arsenate co-treatment: none): 0.19
thermal stability z-score [2]: 0.99

APPBP2 (UniProt Q92624)
thermal stability z-score [1, 3]: -0.18
thermal stability z-score ([1]; arsenate co-treatment: none): 0.0712
thermal stability z-score [2]: -0.115

DHX8 (UniProt Q14562)
thermal stability z-score [1, 3]: 0.819
thermal stability z-score ([1]; arsenate co-treatment: none): 0.167
thermal stability z-score [2]: 0.449

CLCN3 (UniProt P51790)
thermal stability z-score [1, 3]: -0.368
thermal stability z-score ([1]; arsenate co-treatment: none): -0.225
thermal stability z-score [2]: -0.374

LYPLAL1 (UniProt Q5VWZ2)
thermal stability z-score [1, 3]: 0.152
thermal stability z-score ([1]; arsenate co-treatment: none): 0.0691
thermal stability z-score [2]: 0.447

MSH3 (UniProt P20585)
thermal stability z-score [1, 3]: -0.0133
thermal stability z-score ([1]; arsenate co-treatment: none): 0.43
thermal stability z-score [2]: -0.95

CDK8 (UniProt P49336)
Sequence of UniProt P49336 (P49336 whole entry): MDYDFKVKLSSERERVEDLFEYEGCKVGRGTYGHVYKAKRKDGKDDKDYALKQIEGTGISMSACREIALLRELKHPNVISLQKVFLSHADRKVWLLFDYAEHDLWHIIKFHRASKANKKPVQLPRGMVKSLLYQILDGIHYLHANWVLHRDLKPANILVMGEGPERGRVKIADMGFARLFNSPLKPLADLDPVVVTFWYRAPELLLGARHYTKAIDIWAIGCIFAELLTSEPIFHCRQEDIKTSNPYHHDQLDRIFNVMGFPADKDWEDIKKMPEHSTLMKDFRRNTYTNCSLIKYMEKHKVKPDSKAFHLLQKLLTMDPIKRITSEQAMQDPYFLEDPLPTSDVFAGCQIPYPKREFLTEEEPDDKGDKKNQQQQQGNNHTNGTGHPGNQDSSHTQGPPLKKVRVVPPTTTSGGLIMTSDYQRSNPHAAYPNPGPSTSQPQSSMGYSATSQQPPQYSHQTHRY
thermal stability z-score [1, 3]: -0.0332
thermal stability z-score ([1]; arsenate co-treatment: none): -0.822
thermal stability z-score [2]: -1.66

TRIP4 (UniProt Q15650)
thermal stability z-score [1, 3]: 0.243
thermal stability z-score ([1]; arsenate co-treatment: none): 0.422
thermal stability z-score [2]: -0.932

LPCAT2 (UniProt Q7L5N7)
thermal stability z-score [1, 3]: -0.337
thermal stability z-score ([1]; arsenate co-treatment: none): 0.245
thermal stability z-score [2]: 0.944

IRF2BPL (UniProt Q9H1B7)
thermal stability z-score [1, 3]: 0.0789
thermal stability z-score ([1]; arsenate co-treatment: none): 0.157
thermal stability z-score [2]: -0.124

SPECC1L (UniProt Q69YQ0)
thermal stability z-score [1, 3]: 1.12
thermal stability z-score ([1]; arsenate co-treatment: none): 1.43
thermal stability z-score [2]: 1.47

UGP2 (UniProt Q16851)
thermal stability z-score [1, 3]: 0.388
thermal stability z-score ([1]; arsenate co-treatment: none): -0.0879
thermal stability z-score [2]: 0.872

CTSZ (UniProt Q9UBR2)
thermal stability z-score [1, 3]: -1.02
thermal stability z-score ([1]; arsenate co-treatment: none): -0.748
thermal stability z-score [2]: 0.529

FANCI (UniProt Q9NVI1)
thermal stability z-score [1, 3]: -0.722
thermal stability z-score ([1]; arsenate co-treatment: none): -0.439
thermal stability z-score [2]: -1.2

VDAC2 (UniProt P45880)
thermal stability z-score [1, 3]: 0.262
thermal stability z-score ([1]; arsenate co-treatment: none): 0.307
thermal stability z-score [2]: 1.58

MED4 (UniProt Q9NPJ6)
thermal stability z-score [1, 3]: 0.794
thermal stability z-score ([1]; arsenate co-treatment: none): 0.377
thermal stability z-score [2]: -0.174

FBXO30 (UniProt Q8TB52)
thermal stability z-score [1, 3]: -0.102
thermal stability z-score ([1]; arsenate co-treatment: none): -0.208
thermal stability z-score [2]: -0.959

ADCK4 (UniProt Q96D53)
thermal stability z-score [1, 3]: -2.27
thermal stability z-score ([1]; arsenate co-treatment: none): -0.801
thermal stability z-score [2]: -0.165

NDUFS8 (UniProt O00217)
thermal stability z-score [1, 3]: -0.474
thermal stability z-score ([1]; arsenate co-treatment: none): -0.512
thermal stability z-score [2]: -0.279

HADHA (UniProt P40939)
thermal stability z-score [1, 3]: -0.0579
thermal stability z-score ([1]; arsenate co-treatment: none): 0.088
thermal stability z-score [2]: -0.331

TYW3 (UniProt Q6IPR3)
thermal stability z-score [1, 3]: -0.419
thermal stability z-score ([1]; arsenate co-treatment: none): 0.332
thermal stability z-score [2]: -0.177

AKR7A2 (UniProt O43488)
thermal stability z-score [1, 3]: 0.2
thermal stability z-score ([1]; arsenate co-treatment: none): -0.0291
thermal stability z-score [2]: 0.581

RPL26 (UniProt P61254)
thermal stability z-score [1, 3]: 1.18
thermal stability z-score ([1]; arsenate co-treatment: none): 0.347
thermal stability z-score [2]: -0.347

UBL4A (UniProt P11441)
thermal stability z-score [1, 3]: 0.683
thermal stability z-score ([1]; arsenate co-treatment: none): 1.2
thermal stability z-score [2]: 1.11

ZNF598 (UniProt Q86UK7)
thermal stability z-score [1, 3]: 0.0109
thermal stability z-score ([1]; arsenate co-treatment: none): -0.407
thermal stability z-score [2]: -0.82

RFK (UniProt Q969G6)
thermal stability z-score [1, 3]: -0.697
thermal stability z-score ([1]; arsenate co-treatment: none): -0.27
thermal stability z-score [2]: 0.313

ARHGAP21 (UniProt Q5T5U3)
thermal stability z-score [1, 3]: -0.57
thermal stability z-score ([1]; arsenate co-treatment: none): -0.749
thermal stability z-score [2]: -1.3

COX6C (UniProt P09669)
Sequence of UniProt P09669 (P09669 whole entry): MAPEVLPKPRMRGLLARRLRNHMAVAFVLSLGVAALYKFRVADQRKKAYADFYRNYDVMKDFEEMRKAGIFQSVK
thermal stability z-score [1, 3]: 0.703
thermal stability z-score ([1]; arsenate co-treatment: none): 0.431
thermal stability z-score [2]: 0.836

MBNL1 (UniProt Q9NR56)
thermal stability z-score [1, 3]: -0.368
thermal stability z-score ([1]; arsenate co-treatment: none): -0.277
thermal stability z-score [2]: -0.983

GDPD3 (UniProt Q7L5L3)
thermal stability z-score [1, 3]: 0.187
thermal stability z-score ([1]; arsenate co-treatment: none): -0.422
thermal stability z-score [2]: 0.114

ADD3 (UniProt Q9UEY8)
thermal stability z-score [1, 3]: -0.112
thermal stability z-score ([1]; arsenate co-treatment: none): 0.162
thermal stability z-score [2]: -0.362

HDDC3 (UniProt Q8N4P3)
thermal stability z-score [1, 3]: -0.522
thermal stability z-score ([1]; arsenate co-treatment: none): -1.05
thermal stability z-score [2]: -0.222

ATP1A1 (UniProt P05023)
thermal stability z-score [1, 3]: 0.0243
thermal stability z-score ([1]; arsenate co-treatment: none): 0.186
thermal stability z-score [2]: -0.742

ADAM15 (UniProt Q13444)
thermal stability z-score [1, 3]: -1.37
thermal stability z-score ([1]; arsenate co-treatment: none): -1.49
thermal stability z-score [2]: -0.1

PTS (UniProt Q03393)
thermal stability z-score [1, 3]: 0.382
thermal stability z-score ([1]; arsenate co-treatment: none): -0.301
thermal stability z-score [2]: 0.981

NUP62 (UniProt P37198)
Sequence of UniProt P37198 (P37198 whole entry): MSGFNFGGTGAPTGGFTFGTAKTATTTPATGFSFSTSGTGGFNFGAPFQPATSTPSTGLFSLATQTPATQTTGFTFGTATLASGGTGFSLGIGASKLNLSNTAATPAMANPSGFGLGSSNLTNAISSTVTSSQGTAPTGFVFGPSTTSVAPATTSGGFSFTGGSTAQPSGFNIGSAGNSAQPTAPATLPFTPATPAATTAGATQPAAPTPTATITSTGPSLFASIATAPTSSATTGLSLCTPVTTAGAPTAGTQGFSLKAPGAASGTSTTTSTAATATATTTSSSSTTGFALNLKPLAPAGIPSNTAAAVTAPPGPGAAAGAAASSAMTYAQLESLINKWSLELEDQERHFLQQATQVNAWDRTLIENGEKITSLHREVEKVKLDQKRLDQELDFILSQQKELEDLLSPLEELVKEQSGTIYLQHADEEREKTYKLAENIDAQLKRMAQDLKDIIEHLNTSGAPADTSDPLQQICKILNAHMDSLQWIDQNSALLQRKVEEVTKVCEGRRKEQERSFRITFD
thermal stability z-score [1, 3]: -0.129
thermal stability z-score ([1]; arsenate co-treatment: none): -0.358
thermal stability z-score [2]: 0.329

PDE6D (UniProt O43924)
thermal stability z-score [1, 3]: 0.899
thermal stability z-score ([1]; arsenate co-treatment: none): 0.515
thermal stability z-score [2]: 0.912

PAGR1 (UniProt Q9BTK6)
thermal stability z-score [1, 3]: 0.263
thermal stability z-score ([1]; arsenate co-treatment: none): -0.446
thermal stability z-score [2]: -0.194
